In test [1] the test system is rabbit anti-live spore B. anthracis Sterne 34F2 antiserum. The test is classed as binding.
Test [2] deals with rabbit anti-spore serum (live spore antiserum). The class given is binding.
In test [3] the test system is rabbit anti-B. anthracis live spore antiserum IgG. The class given is binding.
The subject of test [4] is anti-anthrose IgG in rhesus macaque sera. The test is classed as binding, rhesus macaques.
Test [5] concerns rabbit anti-irradiated spore B. anthracis Sterne 34F2 antiserum. The class given is binding.
Test [6] deals with IgG antibodies of rabbit anti-live spore, anti-irradiated spore and anti-polysaccharide-KLH antisera. The class given is binding.

Turning to `COC1C(OC2C(O)C(C)OC(OC3C(O)C(C)OC(OCCCN)C3O)C2O)OC(C)C(NC(C)=O)C1O` [analogue 4, 3-aminopropyl O-(4-acetamido-2-O-methyl-4,6-dideoxy-β-D-glucopyranosyl)-(1→3)-O-(α-L-rhamnopyranosyl)-(1→3)-β-L-rhamnopyranoside], the “Reduction in reporter signal (OD) compared to the control” value in test [1] worked out at 17%.

Take maltoheptaose [reference compound]: the “Inhibition of antiserum binding to B. anthracis HF-PS-BSA” value in test [2] is “no significant inhibition”.

As for `CO[C@H]1[C@H](O[C@@H]2[C@@H](O)[C@H](C)O[C@@H](O[C@@H]3[C@@H](O)[C@H](C)O[C@@H](OCCCN)[C@@H]3O)[C@@H]2O)O[C@H](C)[C@@H](NC(=O)CC(C)(C)O)[C@@H]1O` [trisaccharide 1, 3-aminopropyl O-(4-(3-hydroxy-3-methylbutamido)-2-O-methyl-4,6-dideoxy-β-D-glucopyranosyl)-(1→3)-O-(α-L-rhamnopyranosyl)-(1→3)-α-L-rhamnopyranoside], the “Inhibition of antiserum binding to B. anthracis Pasteur HF-PS-BSA” value in test [3] is “no inhibition was observed”. In test [4], the “Inhibition of anti-anthrose response measured by ELISA” value is “specifically inhibited”, the “Inhibition of serum binding to KLH-A-3” value was “inhibited binding” and the “Inhibition of serum binding to KLH-conjugated trisaccharide” value is reported as “Binding could be specifically inhibited”. In test [5], the “Inhibition of interaction of antisera from rabbits immunized with irradiated spores” value was “could also be inhibited in a dose response manner”. In test [1], the “Drop in OD by competing free trisaccharide” value is listed as “significant drop in OD”.

In the case of `COC1C(OC2C(O)C(C)OC(OC3C(O)C(C)OC(OCCCN)C3O)C2O)OC(C)C(NC(=O)CC(C)C)C1O` [trisaccharide 3, 3-aminopropyl O-(4-(3-methylbutamido)-2-O-methyl-4,6-dideoxy-β-D-glucopyranosyl)-(1-→3)-O-(α-L-rhamnopyranosyl)-(1→3)-α-L-rhamnopyranoside], the “Reduction in reporter signal (OD) compared to the control” value in test [1] was found to be 85%.

With `CC1OC(OC2C(O)C(C)OC(OCCCN)C2O)C(O)C(OC2OC(C)C(NC(=O)CC(C)(C)O)C(O)C2O)C1O` [trisaccharide 2, 3-aminopropyl O-(4-(3-hydroxy-3-methylbutamido)-4,6-dideoxy-β-D-glucopyranosyl)-(1→3)-O-(α-L-rhamnopyranosyl)-(1→3)-α-L-rhamnopyranoside], in test [6], the “Relative recognition by antibodies elicited by the live spore vaccine” value was “recognized trisaccharide 2 much better than 1”.

The record behind these values is patent US8420607B2 (priority 2006, dated 2013).
